In patent US20250019350A1, “SYNTHESIS OF THE PROSTATE SPECIFIC MEMBRANE ANTIGEN (PSMA) RADIOLABELED INHIBITOR [18F]DCFPYL” (Progenics Pharmaceuticals, Inc, priority 2023, published 2025):
“And” between values parts separate entries of the source, which are not always exact repeats. Equal entries are not always repeated.

Test: Radiolysis / stability of [18F]DCFPyL over time by HPLC with radiodetection (RCP, free 18F, radioactive impurities)
Type: physicochemical
Description: Those of ordinary skill in the art will be aware of techniques and systems for determining the radiochemical purity of a composition. In some cases, the radiochemical purity is determined using an HPLC associated with a radio-detector. Generally, the radiochemical purity is determined under ambient conditions (e.g., ambient temperature, ambient humidity, ambient light, etc.), such as in samples stored under such conditions.
Stability was assessed using reverse phase HPLC on a C18 column with a phosphate buffer/acetonitrile gradient mobile phase, and the elution profile was monitored using both UV and radiochemical detectors. Samples were analyzed either by direct injection onto the HPLC, dilution and injection or including the addition of tetraethylammonium fluoride (TEAF) into the sample before injection.
Known amounts of free ^18F either alone or spiked with TEAF were injected onto the analytic column and the eluent from the column collected over the course of a chromatogram and assaying the radioactivity using a Capintec. […] Adding TEAF into the analytic samples was incorporated into subsequent studies examining potential radiolysis of [^18F]DCFPyL to overcome some of the limitations of free ^18F quantification.
Analytical HPLC method was used. The method employs UV detection at 264 nm for chemical impurities, and an Eckert & Ziegler model B-FC-1000 gamma detector for radiochemical assays.

[1] = 110 mCi/mL in 50 mg/mL pH 5.8 ascorbic acid, T = 3.0 h
[2] = 110 mCi/mL in 50 mg/mL pH 5.8 ascorbic acid, T = 3.5 h
[3] = 110 mCi/mL in 50 mg/mL pH 5.8 ascorbic acid, T = 4.0 h
[4] = 147 mCi/mL in 0.9% Sodium Chloride, USP, no ascorbic acid, T = 0 h
[5] = 147 mCi/mL in 0.9% Sodium Chloride, USP, no ascorbic acid, T = 0.5 h
[6] = 147 mCi/mL in 0.9% Sodium Chloride, USP, no ascorbic acid, T = 1.0 h
[7] = 147 mCi/mL in 0.9% Sodium Chloride, USP, no ascorbic acid, T = 1.5 h
[8] = 147 mCi/mL in 0.9% Sodium Chloride, USP, no ascorbic acid, T = 2.0 h
[9] = 147 mCi/mL in 0.9% Sodium Chloride, USP, no ascorbic acid, T = 2.5 h
[10] = 147 mCi/mL in 0.9% Sodium Chloride, USP, no ascorbic acid, T = 3.0 h
[11] = 147 mCi/mL in 0.9% Sodium Chloride, USP, no ascorbic acid, T = 3.5 h
[12] = 147 mCi/mL in 0.9% Sodium Chloride, USP, no ascorbic acid, T = 4.0 h
[13] = T = 0/1, 50 mg/mL ascorbic acid pH 5.8, 20% ethanol, 106.5 mCi/mL at EOS
[14] = T = 0, 0.5 mg/mL ascorbic acid pH 5.8, 20% ethanol, 105.8 mCi/mL at EOS
[15] = T = 0, 1 mg/mL ascorbic acid pH 5.8, 20% ethanol, 107.0 mCi/mL at EOS
[16] = T = 0, 5 mg/mL ascorbic acid pH 5.8, 20% ethanol, 99.0 mCi/mL at EOS
[17] = T = 0, 20 mg/mL sodium citrate, 20% ethanol, 104.8 mCi/mL at EOS, MPA = 0.25% of main peak
[18] = T = 0, 50 mg/mL ascorbic acid pH 5.8, 20% ethanol, 139.7 mCi/mL at EOS
[19] = T = 0 hr, 50 mg/mL ascorbic acid pH 5.8 in final product vial, 20% ethanol, 110 mCi/mL at EOS
[20] = T = 0 hr, 100 mg/mL ascorbic acid pH 2.0, 256 mCi/mL at EOS
[21] = T = 0 hr, 20% ethanol in saline, 52 mCi/mL at EOS
[22] = T = 0 hr, 20% ethanol in saline, 65 mCi/mL at EOS
[23] = T = 0 hr, 20% ethanol in saline, 85 mCi/mL at EOS
[24] = T = 0 hr, 100% ethanol, 325 mCi/mL at EOS
[25] = T = 0 hr, control without ascorbic acid, 36% ethanol in saline, 147 mCi/mL at EOS
[26] = T = 3, 50 mg/mL ascorbic acid pH 5.8, 20% ethanol, 106.5 mCi/mL at EOS
[27] = T = 4, 50 mg/mL ascorbic acid pH 5.8, 20% ethanol, 106.5 mCi/mL at EOS
[28] = T = 6, 50 mg/mL ascorbic acid pH 5.8, 20% ethanol, 106.5 mCi/mL at EOS

Question: Which results are given for `O=C(O)CC[C@H](NC(=O)N[C@@H](CCCCNC(=O)c1ccc([18F])nc1)C(=O)O)C(=O)O` [Lot 18F-DCFPyL, 2-(3-{1-carboxy-5-[(6-[18F]fluoro-pyridine-3-carbonyl)-amino]-pentyl}ureido)-pentanedioic acid]?
Answer: free 18F accumulating over 4 hrs (50 mg/mL ascorbic acid pH 5.8, 20% ethanol, 111 mCi/mL at EOS): 0.26%; free 18F accumulating over 4 hrs (100 mg/mL ascorbic acid pH 2.0, 256 mCi/mL at EOS): 0.08%; 18F-DCFPyL (110 mCi/mL in 50 mg/mL pH 5.8 ascorbic acid, T = 0 h): 99.73 area %; 18F-DCFPyL (110 mCi/mL in 50 mg/mL pH 5.8 ascorbic acid, T = 0.5 h): 99.72 area %; 18F-DCFPyL (110 mCi/mL in 50 mg/mL pH 5.8 ascorbic acid, T = 1.0 h): 96.74 area %; 18F-DCFPyL (110 mCi/mL in 50 mg/mL pH 5.8 ascorbic acid, T = 1.5 h): 99.66 area %; 18F-DCFPyL (110 mCi/mL in 50 mg/mL pH 5.8 ascorbic acid, T = 2.0 h): 99.76 area %; 18F-DCFPyL (110 mCi/mL in 50 mg/mL pH 5.8 ascorbic acid, T = 2.5 h): 99.66 area %; 18F-DCFPyL [1]: 99.30 area %; Free 18F [1]: 0.35 area %; 18F-DCFPyL [2]: 99.46 area %; Free 18F [2]: 0.24 area %; 18F-DCFPyL [3]: 99.43 area %; Free 18F [3]: 0.26 area %; 18F-DCFPyL [4]: 94.17 area %; Free 18F [4]: 4.68 area %; 18F-DCFPyL [5]: 90.65 area %; Free 18F [5]: 7.73 area %; 18F-DCFPyL [6]: 90.71 area %; Free 18F [6]: 7.69 area %; 18F-DCFPyL [7]: 89.59 area %; Free 18F [7]: 8.78 area %; 18F-DCFPyL [8]: 89.50 area %; Free 18F [8]: 8.67 area %; 18F-DCFPyL [9]: 88.79 area %; Free 18F [9]: 9.66 area %; 18F-DCFPyL [10]: 88.94 area %; Free 18F [10]: 9.49 area %; 18F-DCFPyL [11]: 88.90 area %; Free 18F [11]: 9.56 area %; 18F-DCFPyL [12]: 89.06 area %; Free 18F [12]: 9.27 area %; Free 18F (256 mCi/mL in ethanol, ascorbic acid in process, T = 0 h): 0.29 area %; Free 18F (256 mCi/mL in ethanol, ascorbic acid in process, T = 0.5 h): 0.40 area %; Free 18F (256 mCi/mL in ethanol, ascorbic acid in process, T = 1.0 h): 0.31 area %; Free 18F (256 mCi/mL in ethanol, ascorbic acid in process, T = 1.5 h): 0.31 area %; Free 18F (256 mCi/mL in ethanol, ascorbic acid in process, T = 2.0 h): 0.31 area %; Free 18F (256 mCi/mL in ethanol, ascorbic acid in process, T = 2.5 h): 0.31 area %; Free 18F (256 mCi/mL in ethanol, ascorbic acid in process, T = 3.0 h): 0.29 area %; Free 18F (256 mCi/mL in ethanol, ascorbic acid in process, T = 3.5 h): 0.42 area %; Free 18F (256 mCi/mL in ethanol, ascorbic acid in process, T = 4.0 h): 0.40 area %; 18F-DCFPyL (256 mCi/mL in ethanol, 100 mg/mL pH 2.0 ascorbic acid in collection vial and HLB wash, T = 0 h): 99.71 area %; 18F-DCFPyL (256 mCi/mL in ethanol, 100 mg/mL pH 2.0 ascorbic acid in collection vial and HLB wash, T = 0.5 h): 99.60 area %; 18F-DCFPyL (256 mCi/mL in ethanol, 100 mg/mL pH 2.0 ascorbic acid in collection vial and HLB wash, T = 1.0 h): 98.68 area %; 18F-DCFPyL (256 mCi/mL in ethanol, 100 mg/mL pH 2.0 ascorbic acid in collection vial and HLB wash, T = 1.5 h): 98.58 area %; 18F-DCFPyL (256 mCi/mL in ethanol, 100 mg/mL pH 2.0 ascorbic acid in collection vial and HLB wash, T = 2.0 h): 98.20 area %; 18F-DCFPyL (256 mCi/mL in ethanol, 100 mg/mL pH 2.0 ascorbic acid in collection vial and HLB wash, T = 2.5 h): 98.71 area %; 18F-DCFPyL (256 mCi/mL in ethanol, 100 mg/mL pH 2.0 ascorbic acid in collection vial and HLB wash, T = 3.0 h): 98.46 area %; 18F-DCFPyL (256 mCi/mL in ethanol, 100 mg/mL pH 2.0 ascorbic acid in collection vial and HLB wash, T = 3.5 h): 97.96 area %; 18F-DCFPyL (256 mCi/mL in ethanol, 100 mg/mL pH 2.0 ascorbic acid in collection vial and HLB wash, T = 4.0 h): 97.95 area %; RCP (4 hours, 5 mg/mL ascorbate pH 6 FPV prefill and 6 mg/mL pH 6 ascorbate as delivery solution): 98%; RCP (4 hours, 10 mg/mL pH 6 ascorbate in collection vial and 5 mg/mL pH 6 ascorbic acid in final product vial): 99%; % RCP (10 hours, 3.3 mg/mL ascorbic acid in FPV, 10 mg/mL pH 2 in collection vial): 97%; RCP (10 hours, 5 mg/mL, pH 6 ascorbate in the final product): 96%; % RCP (10 hours, 5.6 mg/mL ascorbic acid in FPV, 10 mg/mL pH 2 in collection vial): 98%; % RCP (10 hours, 7.8 mg/mL ascorbic acid in FPV, 10 mg/mL pH 2 in collection vial): 97%; RCP (10 hours, pH 2 ascorbate in collection vial, 5 mg/mL ascorbate pH 6 in FPV): 98%; % RCP (10 hours, pH 4.5): 98%; % RCP (10 hours, pH 5.5): 97%; % RCP (10 hours, pH 7.0): 97%; 18F-DCFPyL (% RCP) [13]: 100.00%; Free F-18 [13]: 0.00%; 18F-DCFPyL (% RCP) [14]: 100.00%; Free F-18 [14]: 0.00%; 18F-DCFPyL (% RCP) [15]: 99.68%; Free F-18 [15]: 0.32%; Free F-18 (T = 0, 1 mg/mL sodium ascorbate, 20% ethanol, 111.5 mCi/mL at EOS): 0.57%; 18F-DCFPyL (% RCP) [16]: 100.00%; Free F-18 [16]: 0.00%; Free F-18 (T = 0, 20 mg/mL sodium citrate, 20% ethanol, 104.8 mCi/mL at EOS): 10.22%; RT 3.4 radioactive impurity [17]: <MPA; RT 3.7 radioactive impurity [17]: <MPA; 18F-DCFPyL (% RCP) [18]: 100.00%; Free F-18 [18]: 0.00%; RT 4.8 radioactive impurity (T = 0, 50 mg/mL ascorbic acid pH 5.8, 20% ethanol, 139.7 mCi/mL at EOS, MPA = 0.25% of main peak): <MPA; 18F-DCFPyL (RCP) [19]: 99.7% and 99.73%; Free 18F [19]: < LLQ; RT 5.0 radioactive impurity [19]: 0.27%; 18F-DCFPyL (RCP) (T = 0 hr, 50 mg/mL ascorbic acid pH 5.8 in final product vial, 20% ethanol, 110 mCi/mL at EOS, listed as [^18F]DCFPYL): 99.7%; 18F-DCFPyL (RCP) [20]: 99.7% and 99.71%; Free 18F [20]: 0.29%; 18F-DCFPyL (RCP) (T = 0 hr, 100 mg/mL ascorbic acid pH 2.0, 256 mCi/mL at EOS, listed as [^18F]DCFPYL): 99.7%; 18F-DCFPyL (RCP) [21]: 99.31%; Free F-18 [21]: 0.23%; RT 5.0 radioactive impurity [21]: 0.46%; 18F-DCFPyL (RCP) [22]: 98.75%; Free F-18 [22]: 0.91%; RT 5.0 radioactive impurity [22]: 0.34%; 18F-DCFPyL (RCP) [23]: 97.56%; Free F-18 [23]: 2.10%; RT 5.0 radioactive impurity [23]: 0.34%; 18F-DCFPyL (RCP) [24]: 98.37%; Free F-18 [24]: 1.63%; 18F-DCFPyL (RCP) [25]: 94% and 94.17%; Free F-18 [25]: 4.68%; RT 5.0 radioactive impurity [25]: 0.50%; RT 5.9 radioactive impurity [25]: 0.64%; 18F-DCFPyL (RCP) (T = 0 hr, control without ascorbic acid, 36% ethanol in saline, 147 mCi/mL at EOS, listed as [^18F]DCFPYL): 94%; Free F-18 (T = 0.5, 5 mg/mL sodium ascorbate, 20% ethanol, 114.6 mCi/mL at EOS): 0.39%; 18F-DCFPyL (% RCP) [26]: 100.00%; Free F-18 [26]: 0.00%; 18F-DCFPyL (% RCP) [27]: 99.75%; Free F-18 [27]: 0.25%; 18F-DCFPyL (% RCP) [28]: 99.72%; Free F-18 [28]: 0.28%
